The series has as its target T1, PERK (Mus musculus, UniProt Q9Z2B5).
T1 construct: from tissue; host or cells: mouse brain (C57BL/6 wild type; whole brain homogenates / frontal cortex)
T1 sequence (Q9Z2B5 29-1114): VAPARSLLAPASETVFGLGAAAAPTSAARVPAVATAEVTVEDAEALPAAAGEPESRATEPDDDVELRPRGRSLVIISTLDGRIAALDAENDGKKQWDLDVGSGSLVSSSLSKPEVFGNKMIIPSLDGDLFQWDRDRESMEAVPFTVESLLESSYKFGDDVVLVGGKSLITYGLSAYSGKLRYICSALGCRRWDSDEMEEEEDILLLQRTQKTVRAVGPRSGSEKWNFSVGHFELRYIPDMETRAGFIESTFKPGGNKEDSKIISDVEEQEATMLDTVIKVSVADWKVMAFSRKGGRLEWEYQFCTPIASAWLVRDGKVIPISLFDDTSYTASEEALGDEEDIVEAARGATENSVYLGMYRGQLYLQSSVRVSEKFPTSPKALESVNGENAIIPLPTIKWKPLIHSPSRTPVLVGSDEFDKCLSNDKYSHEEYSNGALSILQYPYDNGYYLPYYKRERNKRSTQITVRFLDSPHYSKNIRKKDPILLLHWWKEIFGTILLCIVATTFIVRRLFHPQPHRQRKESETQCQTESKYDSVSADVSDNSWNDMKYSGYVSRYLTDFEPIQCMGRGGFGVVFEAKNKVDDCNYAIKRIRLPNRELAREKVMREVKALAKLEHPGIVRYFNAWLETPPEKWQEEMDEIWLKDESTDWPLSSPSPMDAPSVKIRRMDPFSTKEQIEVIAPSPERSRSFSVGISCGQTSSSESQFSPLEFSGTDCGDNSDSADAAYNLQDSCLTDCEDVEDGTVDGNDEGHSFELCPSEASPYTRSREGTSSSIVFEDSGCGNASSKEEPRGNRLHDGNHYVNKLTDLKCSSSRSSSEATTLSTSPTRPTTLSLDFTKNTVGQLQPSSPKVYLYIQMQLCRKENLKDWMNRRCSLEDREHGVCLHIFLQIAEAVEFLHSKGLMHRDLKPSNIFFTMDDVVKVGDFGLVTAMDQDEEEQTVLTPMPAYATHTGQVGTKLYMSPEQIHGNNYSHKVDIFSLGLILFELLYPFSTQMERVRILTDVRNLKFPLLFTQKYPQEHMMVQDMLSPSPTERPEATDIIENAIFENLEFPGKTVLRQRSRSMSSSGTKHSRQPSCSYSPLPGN
As to the kind of experiment: Target engagement: Western blots of whole brain homogenates after intraperitoneal administration. It is filed as in vivo. On the procedure: All animal work was conducted either on CR57BL/6 mice, obtained from Charles River Laboratories, Wilmington, Mass., USA, or on homozygous transgenic mice overexpressing human tau with the P301S mutation on a C57BL/6 background, originally developed by Michel Goedert (Xu et al. 2014), obtained by own breeding. Animals were kept at 23±1° C. under standard 12 h light-dark cycle with free access to food and water. They were handled according to the EU Council Directive 2010/63/EU, the Guide for the Care and Use of Laboratory Animals (National Research Council 2011) and the guidelines of the local institutional committee. The experiments were authorized by the local authority “Regierung von Oberbayern” under application number 55.2-1-54-2532-165-13.
5 mg of the PA compound CCT020312 (EMD Millipore, Billerica, Mass., USA) was first dissolved in 100 μl sterile DMSO (AppliChem, Darmstadt, Germany) and then diluted in sterile saline (B. Braun Medical, Melsungen, Germany) to achieve a stock solution of […].
For the initial short-term single-dose target-engagement trial, wild type mice were treated on three consecutive days with either 2 mg/kg of CCT020312 or saline of the equivalent volume by intraperitoneal injection. They were sacrificed by cervical dislocation four hours after the last injection.
For the short-term ascending-dose target-engagement trial, wild type mice at 15 weeks of age were treated on three consecutive days with once daily intraperitoneal (i.p.) injections of either 1, 2, or 5 mg/kg of CCT020312 or equivalent volumes of saline.
For the long-term single-dose target-engagement trial, wild type mice (n=3) at 9 weeks of age were treated for 6 weeks with once daily i.p. injections of either 2 mg/kg of CCT020312 or equivalent volumes of saline.
Mice were sacrificed by cervical dislocation twelve hours after the last injection. Their brains were frozen on dry ice and stored at −80° C. for Western blot analysis.
Frontal cortex tissue was dissected from the fresh-frozen sample on dry ice and suspended in 750 μl of T-PER Tissue Protein Extraction Reagent (Thermo Fisher Scientific) and 1× cOmplete Protease Inhibitor Cocktail Tablets (Hoffmann-La Roche) and 1× PhosSTOP Phosphatase Inhibitor Cocktail Tablets (Hoffmann-La Roche). The tissue piece was initially ground with a pestle inside a microcentrifuge tube on ice and then homogenized by sonification with Branson Sonifier 450 Analog (Branson, now Thermo Fisher Scientific) with 10×500 ms bursts at intensity level 3 on ice. The solution was then centrifuged at 5000 g for 15 minutes at 4° C. and the supernatant retrieved. Protein concentrations were determined using the BCA kit (Thermo Fisher Scientific) by heating the samples at 60° C. for 30 minutes and measuring the absorption on the NanoDrop 2000c spectrophotometer (Thermo Fisher Scientific).
20 μg of protein (200 μg for pPERK blots) were adjusted to equal concentrations between samples by dilution with M-PER and subsequently heated at 95° C. for 5 minutes with Roti®-Load 1 (Carl Roth). SDS-PAGE was performed using Any kD™ Mini-PROTEAN® TGX™ Gels (BioRad, Berkeley, Calif., USA) in a tris-glycine running buffer. The protein was blotted onto PVDF membrane (BioRad) at 70 V for 65 minutes whilst being cooled with ice. The membrane was blocked with 1× Roti®-Block solution (Carl Roth) for 1 h and then incubated at 4° C. overnight under gentle shaking with the primary antibody (see Table 6) in TBS with 5% BSA (Cell Signaling Technology) and 0.05% TWEEN (Sigma-Aldrich). The membranes were then washed and incubated with the species specific HRP-bound secondary antibody (Vector Laboratories, Burlingame, Calif., USA) at 1:2500 in 1× Roti®-Block solution for 2 h, followed by further washing and exposure to Clarity Western ECL Substrate (BioRad) or, in the case of MC1, to Amersham™ ECL™ Prime (GE Healthcare). […]
(In general: Immunoblotting shows a protein as a band on a membrane.)

Where [1] appears, read: wild type mice, 2 mg/kg i.p. once daily for 6 weeks, 2 mg/kg.
Setting [2] is: wild type mice, 1, 2 or 5 mg/kg i.p. once daily, three days.

“Also recorded” adds a separate entry of the source.

Regarding `CCN(CC)CCC(=O)N1N=C(c2c(-c3ccccc3)c3cc(Br)ccc3[nH]c2=O)CC1c1ccc(Br)cc1` (stereo not drawn) [CCT020312, 6-bromo-3-[5-(4-bromo-phenyl)-1-(3-diethylamino-propionyl)-4,5-dihydro-1H-pyrazol-3-yl]-4-phenyl-1H-quinolin-2-one], the brain penetration result (mice, intraperitoneal, inferred from brain pEIF2A) is listed as “enters the brain”. In addition, the “pPERK in the brain” value (wild type mice, 2 mg/kg i.p. once daily for 6 weeks, vs saline, 2 mg/kg) is recorded as “increase; also recorded: significantly increased”. Moreover, under setting [1], the “pNRF2 level in the brain” value is “significant increase; also recorded: significantly increased”, the “total NRF2 levels in the brain” value was “without significant change; also recorded: no significant upregulation” and the “total PERK level in the brain” value is recorded as “no obvious change; also recorded: no significant upregulation”. Besides, the “pEIF2A in whole brain extracts” value (wild type mice, 2 mg/kg i.p. once daily, three days, vs saline) is on record as “marked increase”. Under setting [2], the “pNRF2 level in brain” value is “dose-dependent increase” and the “total NRF2 in brain” value is “without significant change”. Moreover, the “phosphorylated PERK in whole brain extracts” value (wild type mice, 1, 2 or 5 mg/kg i.p. once daily, three days, vs saline) is listed as “marked increase; also recorded: significantly increased”.

The values above are taken from patent US10369123B2, “Perk activator for the treatment of neurodegenerative diseases” (DEUTSCHES ZENTRUM FÜR NEURODEGENERATIVE ERKRANKUNGEN E.V. …, priority 2014, dated 2019).
